Source: ChEMBL document CHEMBL4308841, “Synthesis, in vitro antiproliferative activity, and kinase inhibitory effects of pyrazole-containing diarylureas and diarylamides” (Eur J Med Chem, 2018)

Experiments:
[1] = test system: RXF 393; assay: Growth inhibition of human RXF393 cells incubated for 48 hrs by sulforhodamine B assay; format: functional, cell-based; conditions: RXF 393, 48 h
[2] = test system: HCT-15; assay: Growth inhibition of human HCT15 cells assessed as cell growth at 0.1 uM incubated for 48 hrs by sulforhodamine B assay relative to control; format: functional; conditions: HCT-15, 48 h, read-out: Activity
[3] = test system: UO-31; assay: Growth inhibition of human UO31 cells incubated for 48 hrs by sulforhodamine B assay; format: functional, cell-based; conditions: UO-31, 48 h
[4] = test system: UACC-62; assay: Growth inhibition of human UACC62 cells assessed as cell growth at 0.01 uM incubated for 48 hrs by sulforhodamine B assay relative to control; format: functional; conditions: UACC-62, 48 h, read-out: Activity
[5] = test system: SK-OV-3; assay: Growth inhibition of human SKOV3 cells assessed as cell growth at 100 uM incubated for 48 hrs by sulforhodamine B assay relative to control; format: functional; conditions: SK-OV-3, 48 h, read-out: Activity
[6] = test system: RXF 393; assay: Growth inhibition of human RXF393 cells assessed as cell growth at 0.01 uM incubated for 48 hrs by sulforhodamine B assay relative to control; format: functional; conditions: RXF 393, 48 h, read-out: Activity
[7] = test system: HL-60(TB); assay: Growth inhibition of human HL-60(TB) cells assessed as cell growth at 0.1 uM incubated for 48 hrs by sulforhodamine B assay relative to control; format: functional; conditions: HL-60, 48 h, read-out: Activity
[8] = test system: NCI/ADR-RES; assay: Growth inhibition of human NCI/ADR-RES cells incubated for 48 hrs by sulforhodamine B assay; format: functional, cell-based
[9] = test system: Malme-3M; assay: Growth inhibition of human MALME-3M cells incubated for 48 hrs by sulforhodamine B assay; format: functional, cell-based
[10] = test system: LOX IMVI; assay: Growth inhibition of human LOXIMVI cells assessed as cell growth at 100 uM incubated for 48 hrs by sulforhodamine B assay relative to control; format: functional; conditions: read-out: Activity
[11] = test system: NCI-H522; assay: Growth inhibition of human NCI-H522 cells incubated for 48 hrs by sulforhodamine B assay; format: functional, cell-based; conditions: NCI-H522, 48 h
[12] = test system: OVCAR-8; assay: Growth inhibition of human OVCAR8 cells assessed as cell growth at 0.01 uM incubated for 48 hrs by sulforhodamine B assay relative to control; format: functional; conditions: OVCAR-8, 48 h, read-out: Activity
[13] = test system: SN12C; assay: Growth inhibition of human SN12C cells assessed as cell growth at 1 uM incubated for 48 hrs by sulforhodamine B assay relative to control; format: functional; conditions: read-out: Activity
[14] = test system: UACC-257; assay: Growth inhibition of human UACC257 cells assessed as cell growth at 100 uM incubated for 48 hrs by sulforhodamine B assay relative to control; format: functional; conditions: UACC-257, 48 h, read-out: Activity
[15] = test system: K562; assay: Growth inhibition of human K562 cells assessed as cell growth at 100 uM incubated for 48 hrs by sulforhodamine B assay relative to control; format: functional; conditions: K562, 48 h, read-out: Activity
[16] = test system: SK-MEL-28; assay: Growth inhibition of human SK-MEL-28 cells assessed as cell growth at 0.01 uM incubated for 48 hrs by sulforhodamine B assay relative to control; format: functional; conditions: SK-MEL-28, 48 h, read-out: Activity
[17] = test system: UO-31; assay: Growth inhibition of human UO31 cells assessed as cell growth at 1 uM incubated for 48 hrs by sulforhodamine B assay relative to control; format: functional; conditions: UO-31, 48 h, read-out: Activity
[18] = test system: ACHN; assay: Growth inhibition of human ACHN cells incubated for 48 hrs by sulforhodamine B assay; format: functional, cell-based
[19] = test system: MDA-MB-231; assay: Growth inhibition of human MDA-MB-231 cells assessed as cell growth at 1 uM incubated for 48 hrs by sulforhodamine B assay relative to control; format: functional; conditions: MDA-MB-231, 48 h, read-out: Activity
[20] = test system: BT-549; assay: Growth inhibition of human BT549 cells assessed as cell growth at 0.1 uM incubated for 48 hrs by sulforhodamine B assay relative to control; format: functional; conditions: BT-549, 48 h, read-out: Activity
[21] = test system: SW-620; assay: Growth inhibition of human SW620 cells assessed as cell growth at 100 uM incubated for 48 hrs by sulforhodamine B assay relative to control; format: functional; conditions: SW-620, 48 h, read-out: Activity
[22] = test system: K562; assay: Growth inhibition of human K562 cells assessed as cell growth at 0.1 uM incubated for 48 hrs by sulforhodamine B assay relative to control; format: functional; conditions: K562, 48 h, read-out: Activity
[23] = test system: RXF 393; assay: Growth inhibition of human RXF393 cells assessed as cell growth at 100 uM incubated for 48 hrs by sulforhodamine B assay relative to control; format: functional; conditions: RXF 393, 48 h, read-out: Activity
[24] = test system: MOLT-4; assay: Growth inhibition of human MOLT4 cells assessed as cell growth at 0.01 uM incubated for 48 hrs by sulforhodamine B assay relative to control; format: functional; conditions: MOLT-4, 48 h, read-out: Activity
[25] = test system: 786-0; assay: Growth inhibition of human 786-0 cells assessed as cell growth at 0.1 uM incubated for 48 hrs by sulforhodamine B assay relative to control; format: functional; conditions: 786-0, 48 h, read-out: Activity
[26] = test system: HOP-62; assay: Growth inhibition of human HOP62 cells assessed as cell growth at 100 uM incubated for 48 hrs by sulforhodamine B assay relative to control; format: functional; conditions: HOP-62, 48 h, read-out: Activity
[27] = test system: Hs-578T; assay: Growth inhibition of human Hs578T cells assessed as cell growth at 0.01 uM incubated for 48 hrs by sulforhodamine B assay relative to control; format: functional; conditions: read-out: Activity
[28] = test system: UACC-62; assay: Growth inhibition of human UACC62 cells assessed as cell growth at 0.1 uM incubated for 48 hrs by sulforhodamine B assay relative to control; format: functional; conditions: UACC-62, 48 h, read-out: Activity
[29] = test system: NCI-H322M; assay: Growth inhibition of human NCI-H322M cells incubated for 48 hrs by sulforhodamine B assay; format: functional, cell-based
[30] = read-out: LC50 (the source's name)
[31] = read-out: pLC50 (the source's name) (converted)

With O=C(Nc1cccc(-n2cc(-c3ccncc3)c(-c3cc(O)cc(Cl)c3)n2)c1)Nc1ccc(Cl)c(Cl)c1 the LC50 [1] was 8.13 µM, the GI50 ([1]; read-out: GI50) was 0.556 µM and the TGI ([1]; read-out: TGI) was 24.6 µM. It also gave a GI50 ([1]; read-out: pGI50 (converted)) of 0.55 µM, a TGI ([1]; read-out: pTGI (converted)) of 2.45 µM and a growth at 0.1 µM [2] of 95%. For the same compound, the IC50 [3] was 1.91 µM, the GI50 ([3]; read-out: GI50) was 1.91 µM and the CC50 [3, 30] was greater than 100 µM. The TGI ([3]; read-out: TGI) was 65.1 µM, the GI50 ([3]; read-out: pGI50 (converted)) was 1.91 µM and the CC50 [3, 31] was greater than 100 µM. It also gave a TGI ([3]; read-out: pTGI (converted)) of 6.46 µM, a growth at 0.01 µM [4] of 96% and a growth at 100 µM [5] of -22%. For the same compound, the growth at 0.01 µM [6] was 93%, the growth at 0.1 µM [7] was 100% and the GI50 ([8]; read-out: GI50) was 3.21 µM. For the same compound, the CC50 [8, 30] was greater than 100 µM, the TGI ([8]; read-out: TGI) was greater than 100 µM and the GI50 ([8]; read-out: pGI50 (converted)) was 3.24 µM. The CC50 [8, 31] was greater than 100 µM, the TGI ([8]; read-out: pTGI (converted)) was greater than 100 µM and the GI50 ([9]; read-out: GI50) was 1 µM. It also gave a CC50 [9, 30] greater than 100 µM, a TGI ([9]; read-out: TGI) of 54 µM and a GI50 ([9]; read-out: pGI50 (converted)) of 1.78 µM. For the same compound, the CC50 [9, 31] was greater than 100 µM, the TGI ([9]; read-out: pTGI (converted)) was 5.25 µM and the growth at 100 µM [10] was -38%. The GI50 ([11]; read-out: GI50) was 1.1 µM, the CC50 [11, 30] was 5.99 µM and the TGI ([11]; read-out: TGI) was 31.4 µM. For the same compound, the GI50 ([11]; read-out: pGI50 (converted)) was 1.1 µM, the CC50 [11, 31] was 8.91 µM and the TGI ([11]; read-out: pTGI (converted)) was 3.16 µM. For the same compound, the growth at 0.01 µM [12] was 102%, the growth at 1 µM [13] was 58% and the growth at 100 µM [14] was -92%. It also gave a growth at 100 µM [15] of 5%, a growth at 0.01 µM [16] of 108% and a growth at 1 µM [17] of 78%. It also gave a GI50 ([18]; read-out: GI50) of 2.21 µM, a CC50 [18, 30] greater than 100 µM and a TGI ([18]; read-out: TGI) of 67.1 µM. For the same compound, the GI50 ([18]; read-out: pGI50 (converted)) was 2.19 µM, the CC50 [18, 31] was greater than 100 µM and the TGI ([18]; read-out: pTGI (converted)) was 8.91 µM. The growth at 1 µM [19] was 50%, the growth at 0.1 µM [20] was 93% and the growth at 100 µM [21] was -36%. It also gave a growth at 0.1 µM [22] of 100%, a growth at 100 µM [23] of -52% and a growth at 0.01 µM [24] of 93%. For the same compound, the growth at 0.1 µM [25] was 90%, the growth at 100 µM [26] was -3% and the growth at 0.01 µM [27] was 98%. For the same compound, the growth at 0.1 µM [28] was 99%, the GI50 ([29]; read-out: GI50) was 1.78 µM and the CC50 [29, 30] was greater than 100 µM. The TGI ([29]; read-out: TGI) was 76.1 µM, the GI50 ([29]; read-out: pGI50 (converted)) was 1.78 µM and the CC50 [29, 31] was greater than 100 µM. For the same compound, the TGI ([29]; read-out: pTGI (converted)) was 7.76 µM.
